Test results taken from patent publication US20150045445A1, “3-KETO-N-PROPARGYL-1-AMINOINDAN” (TEVA PHARMACEUTICAL INDUSTRIES, LTD., priority 2009, published 2015).

What was measured:
[1] = Genotoxicity of the by-product; settings: by-product of rasagiline drug substance production; no test described
[2] = AZILECT Product Label, May 2006; cited from earlier work

| SMILES | genotoxicity [1] | absolute bioavailability [2] |
| --- | --- | --- |
| C#CCNC1CC(=O)c2ccccc21 (centres unmarked) [3-keto-N-propargyl-1-aminoindan] | not genotoxic | – |
| C#CCN[C@@H]1CCc2ccccc21 [rasagiline, R(+)-N-propargyl-1-aminoindan] | – | about 36% |
